Assay results from patent publication US10442803B2, “Tricyclic heterocycles as bet protein inhibitors” (Incyte Corporation, priority 2013, dated 2019).
pIC50: −log10 of the molar value. Where a name gives a salt, the structure may show the parent alone.

Test system: KMS.12.BM cells
Experiment: KMS.12.BM cell viability assay
Type: cell-based
Settings: 72 h; KMS.12.BM human myeloma cells, 3 days, Cell Titer-GLO ATP quantitation; read-out: KMS cellular IC50
Protocol: KMS.12.BM cell line (human myeloma) was purchased from JCRB (Osaka, Japan) and maintained in RPMI with 10% FBS culture medium. To measure the cytotoxic activity of the compounds through ATP quantitation, the KMS.12.BM cells are plated in the RPMI culture medium at 5000 cells/well/per 100 μL into a 96-well polystyrene clear black tissue culture plate (Greiner-bio-one through VWR, NJ), in the presence or absence of a concentration range of test compounds. After 3 days, […] Cell Titer-GLO Luminescent (Promega, Madison, Wis.) cell culture agent is added to each well for 10 minutes at room temperature to stabilize the luminescent signal. This determines the number of viable cells in culture based on quantitation of the ATP present, which signals the presence of metabolically active cells. Luminescence is measured with the Top Count 384 (Packard Bioscience through Perkin Elmer, Boston, Mass.).
IC50 data for the Examples is presented in Table 4 as determined by Assay B1.

## CNC(=O)c1cccc(Cn2c(C)cc3c2ccc2nnc(C)n23)c1 [Example 32, 3-[(1,7-dimethyl-6H-pyrrolo[2,3-e][1,2,4]triazolo[4,3-a]pyridin-6-yl)methyl]-N-methylbenzamide trifluoroacetate salt]
  pIC50: ≥ 6.00

## CCNC(=O)c1cccc(Cn2c(C)cc3c2ccc2nnc(C)n23)c1 [Example 33, 3-[(1,7-dimethyl-6H-pyrrolo[2,3-e][1,2,4]triazolo[4,3-a]pyridin-6-yl)methyl]-N-ethylbenzamide trifluoroacetate salt]
  pIC50: ≥ 6.00

## COc1ccc(Cn2c(C)cc3c2ccc2nnc(C)n23)cc1 [Example 34, 6-(4-methoxybenzyl)-1,7-dimethyl-6H-pyrrolo[2,3-e][1,2,4]triazolo[4,3-a]pyridine]
  pIC50: ≥ 6.00

## Cc1cc2c(ccc3nnc(C)n32)n1Cc1ccc(O)cc1 [Example 35, 4-[(1,7-dimethyl-6H-pyrrolo[2,3-e][1,2,4]triazolo[4,3-a]pyridin-6-yl)methyl]phenol]
  pIC50: ≥ 6.00

## Cc1cc2c(ccc3nnc(C)n32)n1Cc1cccc(CNCCO)c1 [Example 36, 2-({3-[(1,7-dimethyl-6H-pyrrolo[2,3-e][1,2,4]triazolo[4,3-a]pyridin-6-yl)methyl]benzyl}amino)ethanol]
  pIC50: ≥ 6.00

## Cc1cc2c(ccc3nnc(C)n32)n1Cc1cccc(CN(C)CCO)c1 [Example 37, 2-[{3-[(1,7-dimethyl-6H-pyrrolo[2,3-e][1,2,4]triazolo[4,3-a]pyridin-6-yl)methyl]benzyl}(methyl)amino]ethanol]
  pIC50: ≥ 6.00

## Cc1cc2c(ccc3nnc(C)n32)n1Cc1cccc(CN2CCOCC2)c1 [Example 38, 1,7-dimethyl-6-[3-(morpholin-4-ylmethyl)benzyl]-6H-pyrrolo[2,3-e][1,2,4]triazolo[4,3-a]pyridine]
  pIC50: ≥ 6.00

## Cc1cc2c(ccc3nnc(C)n32)n1Cc1cccc(CN[C@H]2C[C@H](O)C2)c1 [Example 39, (1r,3r)-3-((3-((1,7-dimethyl-6H-pyrrolo[2,3-e][1,2,4]triazolo[4,3-a]pyridin-6-yl)methyl)benzyl)amino)cyclobutanol]
  pIC50: ≥ 6.00

## Cc1cc2c(ccc3nnc(C)n32)n1Cc1cccc(CN(C)C)c1 [Example 40, 1-{3-[(1,7-dimethyl-6H-pyrrolo[2,3-e][1,2,4]triazolo[4,3-a]pyridin-6-yl)methyl]phenyl}-N,N-dimethylmethanamine]
  pIC50: ≥ 6.00

## CNCc1cccc(Cn2c(C)cc3c2ccc2nnc(C)n23)c1 [Example 41, 1-{3-[(1,7-dimethyl-6H-pyrrolo[2,3-e][1,2,4]triazolo[4,3-a]pyridin-6-yl)methyl]phenyl}-N-methylmethanamine]
  pIC50: ≥ 6.00

## CCNCc1cccc(Cn2c(C)cc3c2ccc2nnc(C)n23)c1 [Example 42, N-{3-[(1,7-dimethyl-6H-pyrrolo[2,3-e][1,2,4]triazolo[4,3-a]pyridin-6-yl)methyl]benzyl}ethanamine]
  pIC50: ≥ 6.00

## CCNC(=O)Nc1cccc(Cn2c(C)cc3c2ccc2nnc(C)n23)c1 [Example 43, N-{3-[(1,7-dimethyl-6H-pyrrolo[2,3-e][1,2,4]triazolo[4,3-a]pyridin-6-yl)methyl]phenyl}-N′-ethylurea trifluoroacetate salt]
  pIC50: 5.00 to 6.00

## Cc1cc2c(ccc3nnc(C)n32)n1Cc1cccc(NC(N)=O)c1 [Example 44, N-{3-[(1,7-dimethyl-6H-pyrrolo[2,3-e][1,2,4]triazolo[4,3-a]pyridin-6-yl)methyl]phenyl}urea]
  pIC50: 5.00 to 6.00

## Cc1cc2c(ccc3nnc(C)n32)n1Cc1cccc(CN2CCCC2)c1 [Example 45, 1,7-dimethyl-6-[3-(pyrrolidin-1-ylmethyl)benzyl]-6H-pyrrolo[2,3-e][1,2,4]triazolo[4,3-a]pyridine]
  pIC50: ≥ 6.00

## Cc1cc2c(ccc3nnc(C)n32)n1Cc1cccc(CN2CCCCC2)c1 [Example 46, 1,7-dimethyl-6-[3-(piperidin-1-ylmethyl)benzyl]-6H-pyrrolo[2,3-e][1,2,4]triazolo[4,3-a]pyridine]
  pIC50: ≥ 6.00

## Cc1cc2c(ccc3nnc(C)n32)n1Cc1cccc(CN2CCN(C)CC2)c1 [Example 47, 1,7-dimethyl-6-{3-[(4-methylpiperazin-1-yl)methyl]benzyl}-6H-pyrrolo[2,3-e][1,2,4]triazolo[4,3-a]pyridine]
  pIC50: 5.00 to 6.00

## Cc1cc2c(ccc3nnc(C)n32)n1Cc1cccc(CN2CCNCC2)c1 [Example 48, 1,7-dimethyl-6-[3-(piperazin-1-ylmethyl)benzyl]-6H-pyrrolo[2,3-e][1,2,4]triazolo[4,3-a]pyridine]
  pIC50: 5.00 to 6.00

## Cc1cc2c(ccc3nnc(C)n32)n1Cc1ccc(CO)cc1 [Example 49, {4-[(1,7-dimethyl-6H-pyrrolo[2,3-e][1,2,4]triazolo[4,3-a]pyridin-6-yl)methyl]phenyl}methanol]
  pIC50: ≥ 6.00

## Cc1cc2c(ccc3nnc(C)n32)n1Cc1ccc(CN2CCC2)cc1 [Example 50, 6-[4-(azetidin-1-ylmethyl)benzyl]-1,7-dimethyl-6H-pyrrolo[2,3-e][1,2,4]triazolo[4,3-a]pyridine]
  pIC50: 5.00 to 6.00

## Cc1cc2c(ccc3nnc(C)n32)n1Cc1ccc(CN2CC(O)C2)cc1 [Example 52, 1-{4-[(1,7-dimethyl-6H-pyrrolo[2,3-e][1,2,4]triazolo[4,3-a]pyridin-6-yl)methyl]benzyl}azetidin-3-ol]
  pIC50: 5.00 to 6.00

## Cc1cc2c(ccc3nnc(C)n32)n1Cc1ccc(CN(C)C)cc1 [Example 53, 1-{4-[(1,7-dimethyl-6H-pyrrolo[2,3-e][1,2,4]triazolo[4,3-a]pyridin-6-yl)methyl]phenyl}-N,N-dimethylmethanamine]
  pIC50: 5.00 to 6.00

## COC1CN(Cc2cccc(Cn3c(C)cc4c3ccc3nnc(C)n34)c2)C1 [Example 54, 6-{3-[(3-methoxyazetidin-1-yl)methyl]benzyl}-1,7-dimethyl-6H-pyrrolo[2,3-e][1,2,4]triazolo[4,3-a]pyridine]
  pIC50: ≥ 6.00

## Cc1nc2c(ccc3nnc(C)n32)n1Cc1ccccc1 [Example 55, 3-benzyl-2,8-dimethyl-3H-imidazo[4,5-e][1,2,4]triazolo[4,3-a]pyridine]
  pIC50: ≥ 6.00

## Cc1nnc2ccc3c(cc(CO)n3Cc3ccccc3)n12 [Example 56, (6-benzyl-1-methyl-6H-pyrrolo[2,3-e][1,2,4]triazolo[4,3-a]pyridin-7-yl)methanol]
  pIC50: 5.00 to 6.00

## Cc1nnc2ccc3c(cc(Cn4ccnc4)n3Cc3ccccc3)n12 [Example 57, 6-benzyl-7-(1H-imidazol-1-ylmethyl)-1-methyl-6H-pyrrolo[2,3-e][1,2,4]triazolo[4,3-a]pyridine]
  pIC50: 5.00 to 6.00

## Cc1nnc2ccc3c(cc(C(N)=O)n3Cc3ccccc3)n12 [Example 58, 6-benzyl-1-methyl-6H-pyrrolo[2,3-e][1,2,4]triazolo[4,3-a]pyridine-7-carboxamide]
  pIC50: ≥ 6.00

## CCNC(=O)c1cc2c(ccc3nnc(C)n32)n1Cc1ccccc1 [Example 59, 6-benzyl-N-ethyl-1-methyl-6H-pyrrolo[2,3-e][1,2,4]triazolo[4,3-a]pyridine-7-carboxamide]
  pIC50: ≥ 6.00

## Cc1nnc2ccc3c(cc(C(=O)N4CC(C#N)C4)n3Cc3ccccc3)n12 [Example 60, 1-[(6-benzyl-1-methyl-6H-pyrrolo[2,3-e][1,2,4]triazolo[4,3-a]pyridin-7-yl)carbonyl]azetidine-3-carbonitrile]
  pIC50: ≥ 6.00

## Cc1nnc2ccc3c(cc(CCO)n3Cc3ccccc3)n12 [Example 61, 2-(6-benzyl-1-methyl-6H-pyrrolo[2,3-e][1,2,4]triazolo[4,3-a]pyridin-7-yl)ethanol]
  pIC50: 5.00 to 6.00

## Cc1nnc2ccc3c(cc(-c4ccn[nH]4)n3Cc3ccccc3)n12 [Example 62, 6-benzyl-1-methyl-7-(1H-pyrazol-5-yl)-6H-pyrrolo[2,3-e][1,2,4]triazolo[4,3-a]pyridine]
  pIC50: ≥ 6.00

## Cc1nnc2ccc3c(cc(-c4cn[nH]c4)n3Cc3ccccc3)n12 [Example 63, 6-benzyl-1-methyl-7-(1H-pyrazol-4-yl)-6H-pyrrolo[2,3-e][1,2,4]triazolo[4,3-a]pyridine]
  pIC50: ≥ 6.00

## Cc1nnc2ccc3c(cc(-c4cnn(CC#N)c4)n3Cc3ccccc3)n12 [Example 64, [4-(6-benzyl-1-methyl-6H-pyrrolo[2,3-e][1,2,4]triazolo[4,3-a]pyridin-7-yl)-1H-pyrazol-1-yl]acetonitrile]
  pIC50: ≥ 6.00

## Cc1nnc2ccc3c(cc(-c4ccn(CC#N)n4)n3Cc3ccccc3)n12 [Example 65, [3-(6-benzyl-1-methyl-6H-pyrrolo[2,3-e][1,2,4]triazolo[4,3-a]pyridin-7-yl)-1H-pyrazol-1-yl]acetonitrile]
  pIC50: ≥ 6.00

## Cc1nnc2ccc3c(cc(-c4cscn4)n3Cc3ccccc3)n12 [Example 66, 6-benzyl-1-methyl-7-(1,3-thiazol-4-yl)-6H-pyrrolo[2,3-e][1,2,4]triazolo[4,3-a]pyridine]
  pIC50: ≥ 6.00

## Cc1nnc2ccc3c(cc(-c4nccs4)n3Cc3ccccc3)n12 [Example 67, 6-benzyl-1-methyl-7-(1,3-thiazol-2-yl)-6H-pyrrolo[2,3-e][1,2,4]triazolo[4,3-a]pyridine]
  pIC50: ≥ 6.00

## Cc1nnc2ccc3c(cc(-c4ccccn4)n3Cc3ccccc3)n12 [Example 68, 6-benzyl-1-methyl-7-pyridin-2-yl-6H-pyrrolo[2,3-e][1,2,4]triazolo[4,3-a]pyridine]
  pIC50: ≥ 6.00

## Cc1nnc2ccc3c(cc(-c4cncs4)n3Cc3ccccc3)n12 [Example 69, 6-benzyl-1-methyl-7-(1,3-thiazol-5-yl)-6H-pyrrolo[2,3-e][1,2,4]triazolo[4,3-a]pyridine]
  pIC50: ≥ 6.00
